According to the supplement of paper PMC11619387:
Values after ≈ are worked out from the molar mass of the structure shown.

Key:
[1] = test system: Pseudomonas aeruginosa PAO1-Xen41; test: EC50 of growth/kill rate concentration-effect curve
Protocol: (§1)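 Time-kill assays of bioluminescent P. aeruginosa PAO1-Xen41 (start ~5e6 CFU/mL) in 96-well plates at 37 °C, 150 rpm. Luminescence was read hourly for 20 h in cation-adjusted Mueller-Hinton broth, either non-conditioned (MH broth with or without supplements) or conditioned by one of 13 CF-associated species, then filter-sterilised and nutrient-replenished. Growth/kill rates came from log-linear regression of the exponential phase at 9-10 antibiotic concentrations, and Hill (Emax) models were fitted with drc for each replicate.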

[2] = test system: Pseudomonas aeruginosa PAO1-Xen41; test: Hill coefficient of concentration-effect curve (unitless); higher = steeper concentration-effect curve
Protocol: as §1

[3] = test system: Pseudomonas aeruginosa PAO1-Xen41; test: Emax, maximal drug effect on net growth rate (fitted lower asymptote) (per hour (slope of log luminescence)); higher = weaker maximal killing (less negative)
Protocol: as §1

C[C@H]1[C@H](NC(=O)/C(=N\OC(C)(C)C(=O)O)c2csc(N)n2)C(=O)N1S(=O)(=O)O [aztreonam]
Settings	EC50, [1] [mg/L]	Emax, [3]	Hill coefficient, [2]
medium (conditioned by secondary species or non-conditioned control): A. baumannii	4.5 (≈ 10.3 µM)	-0.0894	6.71
medium (conditioned by secondary species or non-conditioned control): A. fumigatus	5.15 (≈ 11.8 µM)	-0.0521	5.79
medium (conditioned by secondary species or non-conditioned control): A. xylosoxidans	4.96 (≈ 11.4 µM)	-0.0816	6.69
medium (conditioned by secondary species or non-conditioned control): B. cepacia	4.4 (≈ 10.1 µM)	-0.108	7.76
medium (conditioned by secondary species or non-conditioned control): C. albicans	6.25 (≈ 14.4 µM)	-0.0614	3.57
medium (conditioned by secondary species or non-conditioned control): H. influenzae	5.7 (≈ 13.1 µM)	-0.196	1.98
medium (conditioned by secondary species or non-conditioned control): M. abcessus	4.66 (≈ 10.7 µM)	-0.0657	6.22
medium (conditioned by secondary species or non-conditioned control): M. avium	4.58 (≈ 10.5 µM)	-0.0782	6.26
medium (conditioned by secondary species or non-conditioned control): M. catarrhalis	5.07 (≈ 11.6 µM)	-0.16	4.2
medium (conditioned by secondary species or non-conditioned control): MH broth	4.48 (≈ 10.3 µM)	-0.0757	7.92
medium (conditioned by secondary species or non-conditioned control): MH broth + ADC	4.55	-0.0421	5.14
medium (conditioned by secondary species or non-conditioned control): MH broth + LHB + NAD	4.7	-0.148	3.43
medium (conditioned by secondary species or non-conditioned control): MH broth + glucose	5.04	-0.0548	4.64
medium (conditioned by secondary species or non-conditioned control): R. mannitolilytica	4.356 (≈ 10 µM)	-0.0751	7.94
medium (conditioned by secondary species or non-conditioned control): S. aureus	4.88 (≈ 11.2 µM)	-0.072	4.66
medium (conditioned by secondary species or non-conditioned control): S. maltophilia	4.32 (≈ 9.92 µM)	-0.114	3.3
medium (conditioned by secondary species or non-conditioned control): S. pneumoniae	5.6 (≈ 12.9 µM)	-0.138	3.85

CC(C)(O/N=C(\C(=O)N[C@@H]1C(=O)N2C(C(=O)[O-])=C(C[n+]3ccccc3)CS[C@H]12)c1csc(N)n1)C(=O)O [ceftazidime]
Settings	EC50, [1] [mg/L]	Emax, [3]	Hill coefficient, [2]
medium (conditioned by secondary species or non-conditioned control): A. baumannii	1.62 (≈ 2.96 µM)	-0.122	2.12
medium (conditioned by secondary species or non-conditioned control): A. fumigatus	2.05 (≈ 3.75 µM)	-0.109	3.33
medium (conditioned by secondary species or non-conditioned control): A. xylosoxidans	1.6 (≈ 2.92 µM)	-0.132	2.19
medium (conditioned by secondary species or non-conditioned control): B. cepacia	1.15 (≈ 2.11 µM)	-0.138	2.53
medium (conditioned by secondary species or non-conditioned control): C. albicans	2.02 (≈ 3.69 µM)	-0.126	3.16
medium (conditioned by secondary species or non-conditioned control): H. influenzae	1.86 (≈ 3.41 µM)	-0.223	2.268
medium (conditioned by secondary species or non-conditioned control): M. abcessus	1.17 (≈ 2.15 µM)	-0.0538	3.08
medium (conditioned by secondary species or non-conditioned control): M. avium	1.19 (≈ 2.19 µM)	-0.0876	3.59
medium (conditioned by secondary species or non-conditioned control): M. catarrhalis	1.12 (≈ 2.05 µM)	-0.166	3.76
medium (conditioned by secondary species or non-conditioned control): MH broth	1.28 (≈ 2.33 µM)	-0.0573	3
medium (conditioned by secondary species or non-conditioned control): MH broth + ADC	1.27	-0.0561	3.55
medium (conditioned by secondary species or non-conditioned control): MH broth + LHB + NAD	0.743	-0.133	5.89
medium (conditioned by secondary species or non-conditioned control): MH broth + glucose	1.71	-0.0864	2.61
medium (conditioned by secondary species or non-conditioned control): R. mannitolilytica	1.067 (≈ 1.95 µM)	-0.0734	3.02
medium (conditioned by secondary species or non-conditioned control): S. aureus	1.12 (≈ 2.05 µM)	-0.069	3.04
medium (conditioned by secondary species or non-conditioned control): S. maltophilia	0.702 (≈ 1.28 µM)	-0.139	3.32
medium (conditioned by secondary species or non-conditioned control): S. pneumoniae	1.71 (≈ 3.12 µM)	-0.159	3.31

CO[C@H]1/C=C/O[C@@]2(C)Oc3c(C)c(O)c4c(O)c(c(/C=N/N5CCN(C)CC5)c(O)c4c3C2=O)NC(=O)/C(C)=C\C=C\[C@H](C)[C@H](O)[C@@H](C)[C@@H](O)[C@@H](C)[C@H](OC(C)=O)[C@@H]1C [rifampicin]
Settings	EC50, [1] [mg/L]	Emax, [3]	Hill coefficient, [2]
medium (conditioned by secondary species or non-conditioned control): A. baumannii	58.4 (≈ 71 µM)	-0.428	2.64
medium (conditioned by secondary species or non-conditioned control): A. fumigatus	16.6 (≈ 20.2 µM)	-0.427	1.865
medium (conditioned by secondary species or non-conditioned control): A. xylosoxidans	60.8 (≈ 73.9 µM)	-0.447	3.63
medium (conditioned by secondary species or non-conditioned control): B. cepacia	53.9 (≈ 65.4 µM)	-0.4437	4.03
medium (conditioned by secondary species or non-conditioned control): C. albicans	26.5 (≈ 32.2 µM)	-0.543	2.68
medium (conditioned by secondary species or non-conditioned control): H. influenzae	18.7 (≈ 22.7 µM)	-0.165	5.03
medium (conditioned by secondary species or non-conditioned control): M. abcessus	43.2 (≈ 52.5 µM)	-0.468	2.15
medium (conditioned by secondary species or non-conditioned control): M. avium	72 (≈ 87.5 µM)	-1.04	0.999
medium (conditioned by secondary species or non-conditioned control): M. catarrhalis	58.7 (≈ 71.4 µM)	-0.151	2.74
medium (conditioned by secondary species or non-conditioned control): MH broth	31.7 (≈ 38.5 µM)	-0.425	2.61
medium (conditioned by secondary species or non-conditioned control): MH broth + ADC	83.3	-1.1	0.89
medium (conditioned by secondary species or non-conditioned control): MH broth + LHB + NAD	25.2	-0.141	3.8
medium (conditioned by secondary species or non-conditioned control): MH broth + glucose	26.7	-0.552	2.46
medium (conditioned by secondary species or non-conditioned control): R. mannitolilytica	40.4 (≈ 49 µM)	-0.4494	5.28
medium (conditioned by secondary species or non-conditioned control): S. aureus	43.6 (≈ 53 µM)	-0.461	2.1
medium (conditioned by secondary species or non-conditioned control): S. maltophilia	51.8 (≈ 62.9 µM)	-0.437	3.3
medium (conditioned by secondary species or non-conditioned control): S. pneumoniae	20.8 (≈ 25.3 µM)	-0.142	4.69

C[C@@H](O)[C@H]1C(=O)N2C(C(=O)O)=C(S[C@@H]3CN[C@H](C(=O)N(C)C)C3)[C@H](C)[C@H]12 [meropenem]
Settings	EC50, [1] [mg/L]	Emax, [3]	Hill coefficient, [2]
medium (conditioned by secondary species or non-conditioned control): A. baumannii	2.68 (≈ 6.99 µM)	-0.0771	6.64
medium (conditioned by secondary species or non-conditioned control): A. fumigatus	0.389 (≈ 1.01 µM)	-0.093	7.42
medium (conditioned by secondary species or non-conditioned control): A. xylosoxidans	1.25 (≈ 3.26 µM)	-0.0831	4.28
medium (conditioned by secondary species or non-conditioned control): B. cepacia	0.916 (≈ 2.39 µM)	-0.0593	12.1
medium (conditioned by secondary species or non-conditioned control): C. albicans	0.784 (≈ 2.04 µM)	-0.12	3.15
medium (conditioned by secondary species or non-conditioned control): H. influenzae	0.6259 (≈ 1.63 µM)	-0.172	2.15
medium (conditioned by secondary species or non-conditioned control): M. abcessus	0.609 (≈ 1.59 µM)	-0.0816	5.75
medium (conditioned by secondary species or non-conditioned control): M. avium	0.337 (≈ 0.878 µM)	-0.0509	7.81
medium (conditioned by secondary species or non-conditioned control): M. catarrhalis	1.91 (≈ 4.99 µM)	-0.0746	6.15
medium (conditioned by secondary species or non-conditioned control): MH broth	0.612 (≈ 1.6 µM)	-0.0947	4.27
medium (conditioned by secondary species or non-conditioned control): MH broth + ADC	0.2684	-0.0675	15.3
medium (conditioned by secondary species or non-conditioned control): MH broth + LHB + NAD	0.663	-0.125	3.73
medium (conditioned by secondary species or non-conditioned control): MH broth + glucose	0.628	-0.0923	3
medium (conditioned by secondary species or non-conditioned control): R. mannitolilytica	0.6203 (≈ 1.62 µM)	-0.0818	8.16
medium (conditioned by secondary species or non-conditioned control): S. aureus	0.7071 (≈ 1.84 µM)	-0.0714	10
medium (conditioned by secondary species or non-conditioned control): S. maltophilia	1.18 (≈ 3.07 µM)	-0.0918	3.29
medium (conditioned by secondary species or non-conditioned control): S. pneumoniae	0.938 (≈ 2.45 µM)	-0.189	4.34
